Counter-ions that a name gives are not always drawn.

By inhibition is commonly meant the relative decrease from the control value, in per cent. In general, IC50 refers to the concentration needed to halve the response being measured. Read a high IC50 as weaker potency in that assay.

Chain of LsrK (Q8ZKQ6 whole entry): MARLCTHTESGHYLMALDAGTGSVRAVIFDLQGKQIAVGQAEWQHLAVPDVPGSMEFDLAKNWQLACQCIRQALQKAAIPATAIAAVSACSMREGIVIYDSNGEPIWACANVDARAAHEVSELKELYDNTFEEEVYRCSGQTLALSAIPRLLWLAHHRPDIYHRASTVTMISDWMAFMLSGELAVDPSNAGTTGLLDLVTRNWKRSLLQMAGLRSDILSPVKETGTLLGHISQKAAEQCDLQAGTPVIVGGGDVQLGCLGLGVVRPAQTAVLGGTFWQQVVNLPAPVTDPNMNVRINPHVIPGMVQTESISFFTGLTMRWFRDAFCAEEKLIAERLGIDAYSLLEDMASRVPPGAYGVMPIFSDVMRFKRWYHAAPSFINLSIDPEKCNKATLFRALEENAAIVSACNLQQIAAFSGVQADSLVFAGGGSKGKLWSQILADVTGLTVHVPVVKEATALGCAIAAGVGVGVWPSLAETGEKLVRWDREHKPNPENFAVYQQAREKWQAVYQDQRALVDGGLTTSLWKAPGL

The first experiment addresses LsrK (Salmonella typhimurium, UniProt Q8ZKQ6). The experiment in a line: biochemical. In kind it is biochemical, S. typhimurium.
Settings: not given
As for `CC[C@H]1OC(=O)C[C@@H](O)[C@H](C)[C@@H](O[C@@H]2O[C@H](C)[C@@H](O)[C@H](N(C)C)[C@H]2O)[C@@H](CCN2C[C@H](C)C[C@H](C)C2)C[C@@H](C)C(=O)/C=C/C(C)=C/[C@@H]1CO[C@@H]1O[C@H](C)[C@@H](O)[C@@H](OC)[C@H]1OC` [TILMICOSIN], the inhibition at 50 µM is 16%.

With `O=C(O)/C=C(\CC(=O)O)C(=O)O` [ACONITIC ACID], the inhibition at 50 µM came to 1%. `CC1=C(/C=C/C(C)=C/C=C/C(C)=C/CO)C(C)(C)CCC1` [RETINOL]: the inhibition at 50 µM was determined as 0%. The same measure, in the same setting: the result for `CO/N=C(\C(=O)N[C@@H]1C(=O)N2C(C(=O)OC(C)OC(C)=O)=C(COC(N)=O)CS[C@H]12)c1ccco1` (stereo partly drawn) [CEFUROXIME AXETIL] reads 2%. Turning to `Cc1ccccc1OCC(O)CO` (stereo not drawn) [MEPHENESIN], the inhibition at 50 µM amounted to 1%. In the case of `CC(=O)O[C@@H]1C[C@H]2C(C)(C)C(=O)C=C[C@]2(C)[C@H]2CC[C@@]3(C)[C@H](c4ccoc4)OC(=O)[C@H]4O[C@]43[C@@]21C` [GEDUNIN], the inhibition at 50 µM is 0%. For `CN(C)[C@@H]1C(O)=C(C(N)=O)C(=O)[C@@]2(O)C(O)=C3C(=O)c4c(O)ccc(Cl)c4[C@@H](O)[C@H]3C[C@@H]12` [DEMECLOCYCLINE HYDROCHLORIDE], the inhibition at 50 µM was found to be 109%.

For the compound `O=[N+]([O-])c1cccc2cn[nH]c12` [7-NITROINDAZOLE], the inhibition at 50 µM stood at 1%. As to `O=C(O)[C@]1(O)C[C@@H](O)[C@@H](O)[C@H](O)C1` [QUINIC ACID], the inhibition at 50 µM stood at 0%.

In the case of `CC1(C)S[C@@H]2[C@H](NC(=O)[C@H](C(=O)O)c3ccsc3)C(=O)N2[C@H]1C(=O)O` [TICARCILLIN DISODIUM], the inhibition at 50 µM is 0%.

Take `O=C(O)CCCCCCCC(=O)O` [AZELAIC ACID]: the inhibition at 50 µM turned out to be 3%. Take `CN(C)[C@@H]1C(O)=C(C(=O)NCN2CCCC2)C(=O)[C@@]2(O)C(O)=C3C(=O)c4c(O)cccc4[C@@](C)(O)[C@H]3C[C@@H]12` [ROLITETRACYCLINE]: the inhibition at 50 µM is 5%. Same read-out and setting: to `N[C@@H]1CON=C1O` [CYCLOSERINE] belongs 0%; to `Nc1nc(/C(=C/CC(=O)O)C(=O)N[C@@H]2C(=O)N3C(C(=O)O)=CCS[C@H]23)cs1` [CEFTIBUTEN], 105%; to `CO/N=C(\C(=O)N[C@@H]1C(=O)N2C(C(=O)O)=C(COC(C)=O)CS[C@H]12)c1csc(N)n1` [CEFOTAXIME SODIUM], 32%.

Turning to `CCOC(=O)[C@H](CCc1ccccc1)N[C@H]1CCc2ccccc2N(CC(=O)O)C1=O` [BENAZEPRIL HYDROCHLORIDE], the inhibition at 50 µM is 0%. On to `C[N+](C)(C)CCOC(N)=O` [CARBACHOL], for which the inhibition at 50 µM was determined as 1%. For `[H]/N=C(/N)N/C(=N/[H])NCCc1ccccc1` [PHENFORMIN HYDROCHLORIDE], the inhibition at 50 µM came out at 0%. On the same count and under the same terms, to `C[C@]12CC[C@H]3C(=CCc4cc(O)ccc43)[C@@H]1CCC2=O` [EQUILIN] belongs 1%; to `COC1=CC(=O)C(C(=O)c2ccccc2)=CC1=O` [2-BENZOYL-5-METHOXYBENZOQUINONE], 38%. For the compound `CCc1cn([C@H]2C[C@H](O)[C@@H](CO)O2)c(=O)[nH]c1=O` [EDOXUDINE], the inhibition at 50 µM came to 0%. Turning to `Nc1nc2c(ncn2COCCO)c(=O)[nH]1` [ACYCLOVIR], the inhibition at 50 µM was 8%. In the case of `COc1ccc(Cc2nccc3cc(OC)c(OC)cc23)cc1OC` [PAPAVERINE HYDROCHLORIDE], the inhibition at 50 µM turned out to be 1%.

Consider `Cn1c(=O)c2c(ncn2CC(O)CO)n(C)c1=O` (stereo not drawn) [DYPHYLLINE], for which the inhibition at 50 µM was determined as 1%. The same measure, in the same setting: to `COc1cc(O)cc(OC)c1OC` [ANTIAROL] belongs 21%; to `NS(=O)(=O)c1cc2c(cc1Cl)N=CNS2(=O)=O` [CHLOROTHIAZIDE], 0%; to `CCOC(=O)CCC(=O)O[C@H]1[C@H](O[C@@H]2[C@@H](C)[C@H](O[C@H]3C[C@@](C)(OC)[C@@H](O)[C@H](C)O3)[C@@H](C)C(=O)O[C@H](CC)[C@@](C)(O)[C@H](O)[C@@H](C)C(=O)[C@H](C)C[C@@]2(C)O)O[C@H](C)C[C@@H]1N(C)C` [ERYTHROMYCIN ETHYLSUCCINATE], 1%. On to `O=C1C=C2CC3(O)COc4c(ccc(O)c4O)C3=C2C=C1O` (stereo not drawn) [HEMATEIN], for which the inhibition at 50 µM amounted to 107%. For the compound `CO[C@@]12[C@H](COC(N)=O)C3=C(C(=O)C(C)=C(N)C3=O)N1C[C@@H]1N[C@@H]12` [MITOMYCIN C], the inhibition at 50 µM was 0%. In the case of `CN1[C@@H](CC(=O)c2ccccc2)CCC[C@H]1C[C@H](O)c1ccccc1` [LOBELINE HYDROCHLORIDE], the inhibition at 50 µM is 1%. Consider `CCCCCCCCCCCCCCCC[N+](C)(C)C` [CETRIMONIUM BROMIDE], for which the inhibition at 50 µM stood at 125%. For `OC(CCN1CCCCC1)(c1ccccc1)c1ccccc1` [PRIDINOL METHANESULFONATE], the inhibition at 50 µM came out at 1%. `Nc1nc2c(c(=O)[nH]1)N(C=O)C(CNc1ccc(C(=O)N[C@@H](CCC(=O)O)C(=O)O)cc1)CN2` (stereo partly drawn) [LEUCOVORIN CALCIUM]: the inhibition at 50 µM was 5%. On to `CO[C@H]1[C@H](O)[C@H](O[C@H]2CC[C@@]3(C=O)[C@H](CC[C@@H]4[C@@H]3CC[C@]3(C)[C@@H](C5=CC(=O)OC5)CC[C@]43O)C2)O[C@@H](C)[C@@H]1O` [PERUVOSIDE], for which the inhibition at 50 µM was found to be 1%. As to `O=C(O)c1cn(-c2ccc(F)cc2)c2cc(N3CCNCC3)c(F)cc2c1=O` [SARAFLOXACIN HYDROCHLORIDE], the inhibition at 50 µM was 0%.

As for `Cc1c(O)c(O)cc2c1CC=C1[C@@]2(C)CC[C@@]2(C)[C@@H]3C[C@](C)(C(=O)O)CC[C@]3(C)CC[C@]12C` [DIHYDROCELASTROL], it took 21 µM to reach half-maximal inhibition (IC50) and the inhibition at 50 µM is 105%. `C[C@H](N)[C@H](O)c1cccc(O)c1` [METARAMINOL BITARTRATE]: the inhibition at 50 µM stood at 9%. On the same count and under the same terms, the result for `COc1ccnc(C[S+]([O-])c2nc3ccc(OC(F)F)cc3[nH]2)c1OC` (stereo not drawn) [PANTOPRAZOLE] reads 3%.

In the case of `CC(=O)Nc1ccc(S(=O)(=O)Nc2ccc([N+](=O)[O-])cc2)cc1`, the inhibition at 50 µM amounted to 1%. `O=C(CCNNC(=O)c1ccncc1)NCc1ccccc1` [NIALAMIDE]: the inhibition at 50 µM was 3%.

Regarding `CC[C@@H](C(=O)[C@@H](C)[C@@H](O)[C@H](C)[C@@H]1O[C@@H]([C@@H](CC)C(=O)O)CC[C@@H]1C)[C@H]1O[C@]2(C=C[C@@H](O)[C@]3(CC[C@@](C)([C@H]4CC[C@](O)(CC)[C@H](C)O4)O3)O2)[C@H](C)C[C@@H]1C` [SALINOMYCIN. SODIUM], the inhibition at 50 µM was 2%. `CC(C)=CCc1c2c(c3occ(-c4ccc(O)c(O)c4)c(=O)c3c1O)C=CC(C)(C)O2` [POMIFERIN]: the inhibition at 50 µM was 2%.

Consider `CC(=O)c1c(O)c(C)c(O)c2c1OC1=CC(=O)C(C(C)=O)C(=O)C12C` (stereo not drawn) [USNIC ACID], for which the inhibition at 50 µM amounted to 204%. Turning to `C[N+]1(C)CCCC(OC(=O)C(O)(c2ccccc2)c2ccccc2)C1` (stereo not drawn) [MEPENZOLATE BROMIDE], the inhibition at 50 µM amounted to 3%.

Turning to `CCC(=O)O[C@H]1[C@H](O[C@@H]2[C@@H](C)[C@H](O[C@H]3C[C@@](C)(OC)[C@@H](O)[C@H](C)O3)[C@@H](C)C(=O)O[C@H](CC)[C@@](C)(O)[C@H](O)[C@@H](C)C(=O)[C@H](C)C[C@@]2(C)O)O[C@H](C)C[C@@H]1N(C)C` [ERYTHROMYCIN ESTOLATE], the inhibition at 50 µM came to 10%.

Consider `O=C1C=C2CC3(O)COc4cc(O)ccc4C3=C2C=C1O` (stereo not drawn) [BRAZILEIN], for which the inhibition at 50 µM is 66%.

For `N[C@@H](Cc1ccc(O)cc1)C(=O)O` [TYROSINE], the inhibition at 50 µM came to 1%. As for `CC(C)=CCC/C(C)=C\CO` [NEROL], the inhibition at 50 µM was 1%. Regarding `C[C@H](CCC(=O)O)[C@H]1CC[C@H]2[C@@H]3CCC4CCCC[C@]4(C)[C@H]3C=C[C@]12C` (stereo partly drawn) [CHOL-11-ENIC ACID], the inhibition at 50 µM was determined as 45%. Regarding `COc1ncnc(NS(=O)(=O)c2ccc(N)cc2)c1OC` [SULFADOXINE], the inhibition at 50 µM was determined as 1%. Regarding `Cc1cccc(Nc2ccccc2C(=O)O)c1C` [MEFENAMIC ACID], the inhibition at 50 µM stood at 1%. `Cc1cc(NS(=O)(=O)c2ccc(N)cc2)no1` [SULFAMETHOXAZOLE]: the inhibition at 50 µM was determined as 1%.

Still in this experiment, the particulars now being: 50 µM.
For the compound `Cl.N=C(N)NCCC[C@H](N)C(=O)O` [ARGININE HYDROCHLORIDE], the “Inhibition (%)” value came to 1. As to `CC(C)(C)NCC(O)c1cc(O)cc(O)c1.CC(C)(C)NCC(O)c1cc(O)cc(O)c1.O=S(=O)(O)O` (stereo not drawn) [TERBUTALINE HEMISULFATE], the “Inhibition (%)” value is 1. In the case of `CCOc1ccc(C(=O)c2ccc(OC)c(O)c2O)cc1` [2.3-DIHYDROXY-4-METHOXY-4'-ETHOXYBENZOPHENONE], the “Inhibition (%)” value amounted to 16. Regarding `O=C1CCO1` [BETA-PROPIOLACTONE], the “Inhibition (%)” value amounted to 0. In the case of `Cc1c(S(=O)(=O)[O-])oc2c1C(=O)C(=O)c1c-2ccc2c1CCCC2(C)C.[Na+]` [TANSHINONE IIA SULFONATE SODIUM], the “Inhibition (%)” value was found to be 55. As to `C=N[C@@H](C(=O)N[C@@H]1C(=O)N2[C@@H]1SC(C)(C)[C@@H]2C(=O)[O-])c1ccccc1.[Na+]` [METAMPICILLIN SODIUM], the “Inhibition (%)” value was determined as 2.

Consider `NC(C(=O)O)C(O)C(=O)O` (stereo not drawn) [d.l-threo-3-HYDROXYASPARTIC ACID], for which the “Inhibition (%)” value is reported as 3. On the same count and under the same terms, the result for `COC(=O)NC(=S)Nc1ccccc1NC(=S)NC(=O)OC` reads 3; that for `COc1ccc(C(=O)O)c(O)c1OC` [2-HYDROXY-3.4-DIMETHOXYBENZOIC ACID], 1.

For `C=C[C@@]1(C)CC(=O)[C@@]2(O)[C@](C)(O1)[C@@H](O)[C@@H](O)C1C(C)(C)CC[C@H](O)[C@@]12C` (stereo partly drawn) [DESACETYLCOLFORSIN], the “Inhibition (%)” value is 1. With `C[C@]12CCC(=O)C=C1C=C[C@@H]1[C@@H]2CC[C@@]2(C)[C@H]1CC[C@@]2(O)CCC(=O)[O-].[K+]` [CANRENOIC ACID. POTASSIUM SALT], the “Inhibition (%)” value came to 0. For the compound `C=CC(C1=CC(=O)C(OC)=CC1=O)c1ccc(O)cc1` (stereo not drawn) [DALBERGIONE. 4-METHOXY-4'-HYDROXY-], the “Inhibition (%)” value stood at 90. Take `O=C(O)CCCCCCCC(O)C(O)CCCCCCO` (stereo not drawn) [ALEURETIC ACID]: the “Inhibition (%)” value came to 0.

The values are drawn from PMC6627609, “Targeting Quorum Sensing: High-Throughput Screening to Identify Novel LsrK Inhibitors” (International Journal of Molecular Sciences, 2019).
